Tested on: NOMO1
Experiment: cell viability relative to DMSO control; higher = less cytotoxic
Conditions: 48 h
Summary of the method: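 Leukemia cells (NOMO1 or SEM, 500 cells/well; P12-Ichikawa, 1000 cells/well) were seeded in 5 μl in 1536-well plates after at least four passages of adaptation to each medium. They received library compounds in DMSO by pin dosing, 11 threefold points from 47 μM to 0.79 nM. Luminescence with CellTiter-Glo One was read after 48 h at 37°C. Viability is stated per plate relative to DMSO wells, with cell-free wells as background.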

[1] = HPLM + 10% dialyzed FBS, 0.000781 µM
[2] = HPLM + 10% dialyzed FBS, 0.00234 µM
[3] = HPLM + 10% dialyzed FBS, 0.00702 µM
[4] = HPLM + 10% dialyzed FBS, 0.0211 µM
[5] = HPLM + 10% dialyzed FBS, 0.0632 µM
[6] = HPLM + 10% dialyzed FBS, 0.19 µM
[7] = HPLM + 10% dialyzed FBS, 0.569 µM
[8] = HPLM + 10% dialyzed FBS, 1.71 µM
[9] = HPLM + 10% dialyzed FBS, 5.12 µM
[10] = HPLM + 10% dialyzed FBS, 15.4 µM
[11] = HPLM + 10% dialyzed FBS, 46.1 µM
[12] = RPMI 5 mM glucose + 10% FBS, 0.000781 µM
[13] = RPMI 5 mM glucose + 10% FBS, 0.00234 µM
[14] = RPMI 5 mM glucose + 10% FBS, 0.00702 µM
[15] = RPMI 5 mM glucose + 10% FBS, 0.0211 µM
[16] = RPMI 5 mM glucose + 10% FBS, 0.0632 µM
[17] = RPMI 5 mM glucose + 10% FBS, 0.19 µM
[18] = RPMI 5 mM glucose + 10% FBS, 0.569 µM
[19] = RPMI 5 mM glucose + 10% FBS, 1.71 µM
[20] = RPMI 5 mM glucose + 10% FBS, 5.12 µM
[21] = RPMI 5 mM glucose + 10% FBS, 15.4 µM
[22] = RPMI 5 mM glucose + 10% FBS, 46.1 µM
[23] = RPMI 5 mM glucose + 10% dialyzed FBS, 0.000781 µM
[24] = RPMI 5 mM glucose + 10% dialyzed FBS, 0.00234 µM
[25] = RPMI 5 mM glucose + 10% dialyzed FBS, 0.00702 µM
[26] = RPMI 5 mM glucose + 10% dialyzed FBS, 0.0211 µM
[27] = RPMI 5 mM glucose + 10% dialyzed FBS, 0.0632 µM
[28] = RPMI 5 mM glucose + 10% dialyzed FBS, 0.19 µM
[29] = RPMI 5 mM glucose + 10% dialyzed FBS, 0.569 µM
[30] = RPMI 5 mM glucose + 10% dialyzed FBS, 1.71 µM
[31] = RPMI 5 mM glucose + 10% dialyzed FBS, 5.12 µM
[32] = RPMI 5 mM glucose + 10% dialyzed FBS, 15.4 µM
[33] = RPMI 5 mM glucose + 10% dialyzed FBS, 46.1 µM

Row | SMILES | cell viability [1] [%] | cell viability [2] [%] | cell viability [3] [%] | cell viability [4] [%] | cell viability [5] [%] | cell viability [6] [%] | cell viability [7] [%] | cell viability [8] [%] | cell viability [9] [%] | cell viability [10] [%] | cell viability [11] [%] | cell viability [12] [%] | cell viability [13] [%] | cell viability [14] [%] | cell viability [15] [%] | cell viability [16] [%] | cell viability [17] [%] | cell viability [18] [%] | cell viability [19] [%] | cell viability [20] [%] | cell viability [21] [%] | cell viability [22] [%] | cell viability [23] [%] | cell viability [24] [%] | cell viability [25] [%] | cell viability [26] [%] | cell viability [27] [%] | cell viability [28] [%] | cell viability [29] [%] | cell viability [30] [%] | cell viability [31] [%] | cell viability [32] [%] | cell viability [33] [%]
1 | O=P1(N(CCCl)CCCl)NCCCO1 (stereo unspecified) | 134 | 106 | 108 | 115 | 101 | 112 | 122 | 120 | 97.6 | 91 | 75.7 | 108 | 98.4 | 110 | 99.7 | 102 | 103 | 97.8 | 87.3 | 91.4 | 50.5 | 47.5 | 85.1 | 110 | 99.7 | 119 | 119 | 112 | 103 | 110 | 84.9 | 54 | 50.7
2 | NCCCCCC(=O)O | 97.6 | 95.2 | 104 | 88.4 | 107 | 119 | 110 | 110 | 96.3 | 97 | 99.1 | 91.2 | 94.7 | 108 | 94.2 | 102 | 107 | 86.4 | 92.5 | 97.1 | 88.2 | 95.9 | 80.4 | 92.8 | 107 | 93.4 | 97.3 | 103 | 92.7 | 87.8 | 93.9 | 85.6 | 96.4
3 | NC1CCC(Nc2nc(Nc3ccc(C(=O)N4CCCCC4)cc3)c3ncn(-c4cccc(F)c4)c3n2)CC1 (stereo unspecified) | 114 | 110 | 119 | 121 | 132 | 117 | 129 | 144 | 107 | 119 | 154 | 117 | 113 | 113 | 126 | 123 | 124 | 129 | 107 | 123 | 128 | 129 | 118 | 114 | 133 | 113 | 121 | 127 | 127 | 121 | 125 | 119 | 123
4 | O=C(O)CSCC(=O)NC1CCSC1=O (stereo unspecified) | 122 | 112 | 105 | 95.1 | 118 | 119 | 107 | 117 | 106 | 112 | 122 | 105 | 105 | 111 | 99.8 | 110 | 116 | 114 | 102 | 108 | 105 | 104 | 104 | 95.7 | 114 | 104 | 109 | 113 | 108 | 118 | 105 | 100 | 102
5 | O=C([O-])[C@H](CC(=O)N1C[C@H]2CCCC[C@H]2C1)Cc1ccccc1 | 116 | 120 | 135 | 133 | 138 | 123 | 128 | 145 | 134 | 156 | 122 |  |  |  |  |  |  |  |  |  |  |  |  |  |  |  |  |  |  |  |  |  | 
6 | CCC(=O)OC1CCC2C3CCC/4=C/C(=O)CC[C@@]4(C)C3CC[C@]12C (stereo partly specified) | 89.8 | 112 | 128 | 120 | 122 | 118 | 130 | 136 | 136 | 129 | 135 |  |  |  |  |  |  |  |  |  |  |  |  |  |  |  |  |  |  |  |  |  | 
7 | CN(c1nccc(=O)[nH]1)C1CCN(c2nc3ccccc3n2Cc2ccc(F)cc2)CC1 | 90 | 104 | 116 | 117 | 128 | 124 | 116 | 120 | 105 | 111 | 99.1 | 104 | 101 | 112 | 104 | 114 | 115 | 130 | 126 | 117 | 108 | 105 | 109 | 108 | 105 | 121 | 114 | 116 | 122 | 121 | 114 | 131 | 90.8
8 | CC(C)C(=O)Nc1ncc(-c2cc(C(F)F)nn2-c2c(Cl)cccc2Cl)s1 | 116 | 123 | 112 | 137 | 152 | 125 | 148 | 132 | 133 | 133 | 83.9 |  |  |  |  |  |  |  |  |  |  |  |  |  |  |  |  |  |  |  |  |  | 
9 | COCCCOc1ccnc(C[S+]([O-])c2nc3ccccc3[nH]2)c1C (stereo unspecified) | 92.5 | 116 | 113 | 123 | 123 | 122 | 116 | 127 | 130 | 119 | 117 | 126 | 118 | 110 | 109 | 131 | 124 | 105 | 126 | 115 | 118 | 124 | 108 | 114 | 119 | 120 | 133 | 119 | 119 | 121 | 120 | 115 | 129
10 | CCCC1=N[N](C)C2=C1\N=C(/NC2=O)C3=CC(=CC=C3OCC)[S+]([O-])(=O)N4CCN(C)CC4 | 85.1 | 83.9 | 81.6 | 83.7 | 86.1 | 87.9 | 98.8 | 82.4 | 81.1 | 83.6 | 52.8 | 79.5 | 92.9 | 77.4 | 81.6 | 76 | 90.2 | 72 | 83.7 | 77.3 | 79.3 | 76.9 | 94.4 | 88 | 91.9 | 84.5 | 72.3 | 96 | 82.3 | 77.1 | 77.4 | 85.2 | 80.8
11 | CCCCCCCCOc1ccccc1C(=O)Nc1ccc(C(=O)OCC[N+](C)(CC)CC)cc1 | 101 | 104 | 103 | 104 | 110 | 99.5 | 85.8 | 100 | 78.1 | 88.1 | 28.7 | 84.6 | 94.7 | 93.2 | 83.8 | 93.4 | 86.4 | 90.1 | 83.7 | 82 | 81 | 21.7 | 92.8 | 93.5 | 96.6 | 90.1 | 98.3 | 91.9 | 83.7 | 84.4 | 73.9 | 88.8 | 31.8
12 | CCCC(CCC)C(=O)[O-] | 106 | 105 | 113 | 122 | 116 | 120 | 109 | 110 | 101 | 84.9 | 63.8 | 86.1 | 96.6 | 107 | 123 | 106 | 113 | 107 | 102 | 111 | 94.4 | 92.1 | 75.5 | 108 | 105 | 106 | 112 | 116 | 114 | 109 | 98.6 | 110 | 101
13 | CCNC(=O)Nc1ccc(-c2nc3c(c(N4CCOC[C@@H]4C)n2)CCN(C2COC2)C3)cc1 | 117 | 130 | 102 | 119 | 101 | 95.9 | 88.6 | 66.5 | 57.6 | 44.5 | 40.5 | 109 | 102 | 105 | 107 | 105 | 94.6 | 98.9 | 84.6 | 67.3 | 52.8 | 46.6 | 108 | 115 | 119 | 102 | 98.4 | 97.2 | 101 | 66.7 | 66.5 | 52.8 | 45.4
14 | CCCCOc1ccc(CC(=O)NO)cc1 | 122 | 124 | 114 | 121 | 101 | 104 | 104 | 109 | 107 | 95.4 | 85.3 | 101 | 110 | 122 | 99.3 | 97.4 | 118 | 108 | 108 | 96.1 | 97.2 | 81.2 | 107 | 123 | 116 | 126 | 109 | 111 | 109 | 103 | 95 | 94.7 | 86.9
15 | CN1CC/C(CC1)=C3\c4ccccc4CC(=O)c2sccc23 | 120 | 125 | 114 | 121 | 130 | 128 | 153 | 135 | 110 | 112 | 105 | 120 | 123 | 136 | 135 | 136 | 134 | 156 | 131 | 142 | 151 | 128 |  |  |  |  |  |  |  |  |  |  | 
16 | CCCc1nc2c(C)cc(-c3nc4ccccc4n3C)cc2n1Cc1ccc(-c2ccccc2C(=O)O)cc1 | 117 | 102 | 112 | 110 | 139 | 140 | 136 | 138 | 127 | 134 | 134 | 123 | 123 | 139 | 126 | 150 | 144 | 131 | 143 | 150 | 145 | 132 |  |  |  |  |  |  |  |  |  |  | 
17 | NC(=O)c1ccc(-c2nc(-c3ccc4c(c3)OCO4)c(-c3ccccn3)[nH]2)cc1 | 114 | 135 | 118 | 134 | 118 | 132 | 119 | 123 | 121 | 120 | 124 | 121 | 112 | 127 | 113 | 126 | 111 | 124 | 109 | 108 | 125 | 112 | 117 | 108 | 117 | 114 | 116 | 110 | 119 | 116 | 109 | 113 | 105
18 | O=C(O)c1ccc(-c2c[nH]c3ncc(-c4ccccc4)cc23)cc1C1CCCC1 | 114 | 120 | 121 | 130 | 134 | 134 | 131 | 138 | 126 | 134 | 110 | 118 | 108 | 131 | 123 | 127 | 123 | 130 | 132 | 113 | 115 | 117 | 108 | 127 | 112 | 133 | 137 | 126 | 125 | 132 | 120 | 105 | 119
